Here are results for two substances from US20050043262A1, “Novel specific inhibitor of the cyclin kinase inhibitor p21Waf1/Cip1 and methods of using the inhibitor” (priority 2000, published 2005).

One data set deals with T47D cells. Nature of the data set: [3H]thymidine incorporation in T47D cells. Type of data set: cell-based, human. Conditions: 200 nM, serum 24 hours. As for the experimental part:
Cell Culture and DNA Synthesis: T47D (ductal carcinoma) and MCF7 (adenocarcinoma) human breast cancer cell lines were obtained from the American Type Culture Collection. All cell lines were maintained according to vendors' recommendations. The cells were growth arrested by placing them in serum-free quiescence media and exposed to 10% serum-containing media as indicated. [^3H]Thymidine incorporation was assessed as described previously (Weiss, R. H., and Nuccitelli, R., J. Biol. Chem., 267: 5608-5613, 1992).
Apoptotic cells will not incorporate thymidine into DNA during S phase, but [^3H]thymidine incorporation experiments will not distinguish between G1→S arrest and apoptosis. Serum-starved cells were transfected with 200 nM antisense p21 and control ODN, stimulated with serum-containing media, and examined for their ability to incorporate [^3H]thymidine into DNA. […] Antisense p21 attenuates [^3H]thymidine incorporation. MCF7 and T47D cells were grown to confluence, serum starved for 24 hours, and lipofected with antisense p21 (AS) or control (SC) ODN at the concentrations indicated (in nM). […] Serum was added for 24 hours, and the cells were incubated with [^3H]thymidine for the last 6 hours. DNA synthesis was assessed by [^3H]thymidine incorporation and is expressed as mean +SD of 3 wells/data point. *, P <0.05 compared with antisense p21 ODN transfection. […]
On the technique in general: Dividing cells build labelled thymidine or BrdU into new DNA.

The next data set relates to laminin. Briefly: Laminin production and secretion (immunoblot of lysate and conditioned media). Conditions: VSM cells, 400 nM, TGF-β 0.1 to 10 ng/ml for 4 hours. Type of data set: cell-based, rat. How it is done:
Western blots: Cells were grown to confluence in 6 cm culture dishes and serum deprived. After transfection and/or treatment with appropriate agonist, conditioned medium was removed and saved and the cells were washed with phosphate-buffered saline and lysed in lysis buffer. Both supernatant and cell lysate were normalized to the lysate protein concentrations and Western blotted as described (Weiss, R. H.; et al. Am. J. Physiol. 274: C1521-C1529; 1998).
The p21 influences on matrix protein secretion in VSM cells were determined. Levels of the matrix proteins laminin and fibronectin were examined in both TGF-β stimulated lysate and conditioned media of cells in which p21 expression had been attenuated. The cells were transfected with either antisense p21 (SEQ. ID NO.:1) (400 nM), or random sequence control (SEQ. ID NO.:3) (400 nM) oligodeoxynucleotide, and then stimulated with TGF-β at for 0.1 to 10 ng/ml for 4 hours. Conditioned media and cell lysate were collected, and both medium and lysate volumes were normalized for the protein content in total cell lysate to exclude any skewing of the data due to cell proliferation. The proteins were electrophoresed and immunoblotted with either fibronectin (after immunoprecipitation to eliminate extraneous bands which appeared in the absence of this procedure) or laminin antibody.
On the technique in general: A western blot detects proteins with antibodies after separation by electrophoresis.

For the next data set, the system named is Met-1 cells. Conditions: Weiss et al., Cancer Lett. 2003; cited from earlier work.
A further data set relates to fibronectin. Briefly: Fibronectin production and secretion (immunoprecipitation/immunoblot). In kind it is cell-based, rat. Conditions: VSM cells, 400 nM, TGF-β 0.1 to 10 ng/ml. As for the experimental part: Immunoprecipitations: VSM cells were grown to confluence. After incubation under appropriate conditions, the cells were washed with ice-cold phosphate-buffered saline and immediately lysed in lysis buffer (20 mM Tris [pH7.5], 150 mM NaCl, 1 mM EDTA, 1 mM EGTA, 1% Triton X-100, 2.5 mM sodium pyrophosphate, 1 mM β-glycerolphosphate, 1 mM Na3VO4, 1 μg/ml Leupeptin, 1 mM PMSF) at 4° C. The cells were scraped off with a rubber spatula and the insoluble material removed by centrifuging at 10,000× g for 10 min at 4° C. Protein concentration was determined by A595, and lysates containing equal amounts of protein were incubated with […] anti-fibronectin antibody at 4° C. overnight. Protein A-Sepharose beads were added and the resulting mixture was incubated for an additional 2 hours at 4° C. The beads were centrifuged in a microfuge for 20 sec, and the pellet was washed 3 times with cold lysis buffer. The supernatant was decanted, gel loading buffer was added to the precipitate, and the solution was boiled for 5 min, and centrifuged. The supernatant was electrophoresed on a 7.5% SDS-polyacrylamide gel with equal volumes of sample per lane. The proteins were electrophoretically transferred to nitrocellulose and probed with fibronectin antibody.
The p21 influences on matrix protein secretion in VSM cells were determined. […]

Data set [1] deals with α-actin. Briefly: alpha-actin level by Western blot in A431 cells. Conditions: 200 nM oligodeoxynucleotide. In kind it is cell-based, human. How it is done:
Western blots: Cells were grown to confluence in 6 cm culture dishes and serum deprived. After transfection and or treatment with appropriate agonist, the cells were washed with phosphate-buffered saline and lysed in lysis buffer and the supernatant was Western blotted as described (Weiss and Nuccitelli, 1992 J. Biol. Chem., 267, p. 5608-5613).
PMA is a potent inducer of p21^Waf1/Cip1 in a variety of different cell lines (Huang et al., 1995 Proc. Natl. Acad. Sci. US.A., 92, p. 4793-4797; Michieli et al., 1994 Cancer Res., 54, p. 3391-3395) and was employed to examine p21^Waf1/Cip1 levels after antisense transfection and confirm efficacy of translation to attenuate p21^Waf1/Cip1 levels. A431 cells were transfected with 200 nM antisense p21^Waf1/Cip1 (SEQ. ID NO.:1) or sense p21^Waf1/Cip1 oligodeoxynucleotide (SEQ. ID NO.:2). After overnight incubation in serum-free medium, the cells were stimulated with PMA (100 ng/ml) for the times indicated, lysed, and the lysates were Western blotted with p21^Waf1/Cip1 or α-actin antibody.

The subject of data set [2] is α-actin. Briefly: alpha-actin protein level by Western blot in A10 VSM cells. Type of data set: cell-based, rat. How it is done:
Western blots: Cells were grown to confluence in 6 cm culture dishes and serum deprived. After transfection and or treatment with appropriate agonist, the cells were washed with phosphate-buffered saline and lysed in lysis buffer and the supernatant was Western blotted as described (Weiss et al., 1998 Am. J. Physiol., 274, p. C1521-C1529).
At the times indicated after the overnight incubation (in hours), the medium was changed to quiescence medium and the cells were stimulated with PMA for 4 hours to show maximal p21^Waf1/Cip1 expression (FIG. 6a). The lysates were immunoblotted with (a) p21^Waf1/Cip1 or p27^Kip1 antibody or (b) α-actin antibody. This is likely due to sequence similarity between the two genes, as p21^Waf1/Cip1 shares 43% sequence identity with p27^Kip1 in the cdk/cyclin binding site (residues 27-88), located in the conserved N terminus (Nomura et al., 1997 Gene, 191, p. 211-218; Toyoshima and Hunter, 1994 Cell, 78, p. 67-74).
Using a random sequence phosphorothioate oligodeoxynucleotide (SEQ. ID NO.:3) as a control, the effect of the antisense oligodeoxynucleotide to p21 (400 nM) on p21 and α-actin protein expression in A10 VSM cells, was examined. The lysates, normalized for protein content, were Western blotted with either p21 or α-actin antibody.

Take “5′-ATC-CCC-AGC-CGG-TTC-TGA-CAT-3′ (antisense ATCCCCAGCCGGTTCTGACAT; listed as DNA, chemistry not fully specified) [antisense p21 ODN]”: in the data set on T47D cells, the “[3H]thymidine incorporation (DNA incorporation)” value is recorded as “significant attenuation”.
In the case of 5′-GACATCACCAGGATCGGACAT-3′, the “production and secretion of laminin” value with laminin is “markedly reduced”. Moreover, in the data set on Met-1 cells, the “growth of tumors in a mouse model of breast cancer” value is listed as “attenuates growth of tumors”. Further, the “TGF-β-mediated fibronectin production and secretion” value with fibronectin is “decreases”. The “levels of α-actin” value with α-actin [1] and with α-actin [2] (identical conditions to p21 blot) was “not altered” throughout. The α-actin protein level entry with α-actin [2] (400 nM) is “no effect”.
